Test system: S. cerevisiae tim23-1 mutant growth, luminescence
Assay: potency against tim23-1 yeast growth – luminescence, uHTS hits, dose response (AID 493002);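 note: yeast grown roughly 22 hours at 25 °C before the luminescence read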

Row | Compound | IC50 [µM]
1 | COC(=O)c1cccc(NC(=O)c2ccc(OC)c(Cl)c2)c1 | 20.6
2 | Nc1c(C(=O)Nc2ccc3c(c2)OCCO3)nnn1Cc1ccccc1Cl | 12.4
3 | Cc1cccc(N2C(=O)c3ccc(Br)cc3C2=O)n1 | 12.7
4 | Oc1ccc(/C=N/Nc2cccc(Cl)n2)c(O)c1 | 10.6
5 | Oc1ccc(Oc2ccc(Oc3ccc(O)cc3)cc2)cc1 | 6.42
6 | O=C1NN=C(c2ccc(Br)cc2)CC1c1ccc(Cl)cc1 (stereo not drawn) | 9.86
7 | CC1CCc2c(c3ccccc3n2C(=O)CCl)C1 (stereo not drawn) | 3.68
8 | CC1=NN(c2ccccc2)C(=O)/C1=C/c1c(O)n(-c2ccc(F)c(Cl)c2)[nH]c1=O | 24.3
9 | O=C(N/N=C/c1ccc2cccnc2c1)c1ccco1 | 18.8
10 | CSc1nnc(C)c(/C=C/NOCc2ccc(Cl)cc2)n1 | 6.13
11 | COCCNC(=O)/C(C#N)=C/c1ccc(OCc2ccc(F)cc2)cc1 | 10.5
12 | c1ccc(Nc2nc(-c3ccccc3)nc3ccccc23)cc1 | 5.08
13 | c1cnc2c(c1)ccc1cccnc12 | 9.59
14 | O=C(Nc1ccc(F)c(Cl)c1)c1ccccc1 | 11.5
15 | CCCC(=O)NC(c1ccc(C(C)C)cc1)c1ccc2cccnc2c1O (stereo not drawn) | 7.2
16 | Nc1nc2c(s1)CCc1c-2cnn1-c1ccccc1 | 12.4
17 | COc1ccc(C(=O)N/N=C/c2ccc(OC)c(COc3ccc(F)cc3F)c2)cc1 | 24.9
18 | COC(=O)c1c(-c2ccc(S(C)(=O)=O)cc2)sc2ccc(OC)cc12 | 12
19 | c1ccc2[nH]c(CSc3nc4ccccc4o3)nc2c1 | 12.3
20 | Oc1ccccc1-c1cc(-c2ccc(F)cc2)n[nH]1 | 13.5
21 | O=C(NCCCc1ccccc1)Nc1cccc(Cl)c1 | 9.3
22 | Cc1cc2cc(CNC(=O)c3ccc(C)c([N+](=O)[O-])c3)ccc2[nH]1 | 9.14

Row | Compound | IC50 [µM]
23 | COc1ccc(C(=O)CC(=O)c2ccccc2O)cc1 | 15.1
24 | O=C(N/N=C/C(Cl)=C\c1ccccc1)c1cccs1 | 4.85
25 | Oc1ccc(Cl)cc1CNc1cnc2ccccc2c1 | 15.3
26 | Cc1ccc(NC(=O)c2nc(S(=O)(=O)Cc3ccccc3C)ncc2Cl)cc1C | 3.72
27 | CC1(S(=O)(=O)O)CC(=O)c2ccccc2C1=O (stereo not drawn) | 6.57
28 | Nc1nc(-c2ccc(-c3ccccc3)cc2)cs1 | 14.9
29 | CCNc1nc(N)c(C(=O)C23CC4CC(CC(C4)C2)C3)s1 | 12.4
30 | O=C(Nc1nc2ccccc2s1)C1CCCN1S(=O)(=O)c1ccc(Cl)cc1 (stereo not drawn) | 8.08
31 | Cc1cccn2c(=O)c(C(=O)NC3CCCCC3)c(O)nc12 | 15.6
32 | O=c1oc(Cl)c(Cl)c2ccccc12 | 3.83
33 | CC1(C)CC(=O)C=C(c2ccc(I)cc2)C1 | 14.8
34 | O=C(Nc1ccc(Nc2ccccc2)cc1)c1ccccc1F | 21.9
35 | Brc1cccc(-c2n[nH]c(-c3ccccc3)n2)c1 | 11.5
36 | COc1ccc(CCCC(=O)N/N=C/c2ccc(C)cc2)cc1 | 16.7
37 | CN1CCc2nc3sc(C(=O)C45CC6CC(CC(C6)C4)C5)c(N)c3cc2C1 | 2.43
38 | Cc1ccc(S(=O)(=O)N2C(=O)[C@@H]3Cc4ccccc4CN3C2=O)cc1 | 30.5
39 | CCOC(=O)c1c(C=O)c2sc(C)cc2n1C | 18
40 | CCOc1cc(/C=C2\SC(N3CCCC(C)C3)=NC2=O)ccc1O (stereo not drawn) | 28.8
41 | Oc1ccccc1-c1cc(-c2cccc(F)c2)n[nH]1 | 13.2
42 | CC(=O)Nc1cccc(-c2cc(-c3c(Cl)cccc3Cl)no2)c1 | 11.1
43 | Cc1ccc(C(=O)C(C)OC(=O)c2cc3cc([N+](=O)[O-])ccc3oc2=O)cc1 (stereo not drawn) | 14.9
44 | COc1cc(OC)cc(C(=O)Nc2ccc(Nc3ccccc3)cc2)c1 | 9.92

Row | Compound | IC50 [µM]
45 | CCC(C)c1ccc(NC(=O)C2CC3CCC2C3)cc1 (stereo not drawn) | 12.5
46 | Cc1ccc2[nH]cc(C(=O)CCl)c2c1 | 6.02
47 | COC(=O)c1ccc(-c2ccc(C(c3c(C)[nH][nH]c3=O)c3c(C)[nH][nH]c3=O)o2)cc1 | 11.2
48 | COn1c(=O)c(-c2cccs2)[n+]([O-])c2ccccc21 | 3.96
49 | Cc1cccc(N=Nc2cnc(N)s2)c1 | 15.1
50 | O=C(COc1ccccc1)N/N=C/c1ccc([N+](=O)[O-])o1 | 6.56
51 | COc1ccc(C(=O)Nc2nc3ccccc3s2)c(OC)c1 | 5.92
52 | CC(C)CCN1C(=O)c2cccc3c(N)ccc(c23)C1=O | 9.07
53 | Cc1nc2ccc(NC(=O)c3cccs3)cc2c(=O)n1Cc1ccc(Cl)cc1 | 12
54 | O=C(CSc1cccc[n+]1[O-])Nc1ccccc1Oc1ccccc1 | 3.98
55 | COC(=O)c1ccc(NC(=O)CSc2nc(=O)n3cccc(C)c3n2)cc1 | 22.7
56 | Cc1ccc2c(c1)C(=O)C(=O)N2c1ccc(Cl)cc1 | 11.7
57 | C(=C\c1ccccc1)/C=N/Nc1nc2ccccc2[nH]1 | 8.63
58 | O=C(Nc1ccc(C(=O)N2CCCc3ccccc32)cc1)c1cccs1 | 7.75
59 | CC1CCC(NC(=O)c2cc(C3CC3)nn2-c2ccccc2)CC1 (stereo not drawn) | 15.8
60 | Cc1ccc(C(=O)NC2=NCCS2)cc1Cl | 16.6
61 | COc1cccc(C2=NN(C(=O)c3ccco3)C(c3ccco3)C2)c1 (stereo not drawn) | 20.4
62 | CCOC(=O)c1sc(=NC(=O)c2ccco2)n(C)c1C | 14.1
63 | O=C(Nc1ccc(-c2cn3c(n2)SCC3)cc1)c1ccco1 | 8.88
64 | O=C(N/N=C/c1ccc(Br)s1)c1c[nH]c2ccccc12 | 14.9
65 | CC1(C)CC2CC(C)(CN2C(=O)c2cc(-c3ccc(O)cc3)on2)C1 (stereo not drawn) | 15.3
66 | Cc1ccccc1OCCCSc1nc2ccccc2[nH]1 | 9.44

Row | Compound | IC50 [µM]
67 | Cc1ccc(O)c(C(=O)c2cnn(C(=O)Cc3csc(C)n3)c2)c1 | 12.4
68 | O=C(Nc1ccc(Nc2ccccc2)cc1)c1ccc(Cl)c([N+](=O)[O-])c1 | 6.25
69 | CC(C)c1nc(NCCO)c(C#N)c2c1CCCC2 | 12.4
70 | Cc1ccc(CNc2oc(-c3cccs3)nc2C#N)cc1 | 25.6
71 | O=C(Nc1ccc(-c2nc3ccccc3[nH]2)cc1)C1CCCO1 (stereo not drawn) | 14.4
72 | O=Cc1cccnc1SCc1ccccc1 | 12.6
73 | Clc1nssc1=Nc1nncs1 | 3.05
74 | O=C(NCc1cccnc1)/C(=C\c1ccc(-c2ccc(Br)cc2)o1)S(=O)(=O)c1ccccc1 | 4.25
75 | O=C(N/N=C/c1cccs1)c1cc(-c2cccc3ccccc23)n[nH]1 | 28
76 | O=C(O)c1ccc(N/N=C/c2ccc(-c3ccc(Br)cc3)o2)cc1 | 16.2
77 | OCCCNc1cc(-c2ccccc2)nc2cc(-c3ccc(F)cc3)nn12 | 33.3
78 | Nc1cc([N+](=O)[O-])cc2oc(-c3ccccc3)cc12 | 13.1
79 | Cc1nc2scc(C)n2c(=O)c1S(=O)(=O)Nc1ccc(N2CCOCC2)cc1 | 6.67
80 | CN=c1scc(-c2cccs2)n1/N=C/c1ccc(O)c(O)c1O | 10.5
81 | O=C(c1cc(-c2cccc(O)c2)on1)N1CCc2ccccc2C1 | 16
82 | O=Cc1sc(Nc2ccccc2)nc1Cl | 11.7
83 | C#CCOCCOCCOCCNc1nc(N2CCN(C(=O)CCCCCCCCCCNC(=O)[C@H](CCCCN)n3cc(C)nn3)CC2)nc(N2CCN(C(=O)CCCCCCCCCCNC(=O)[C@H](CCCN=C(N)N)n3cc(C[C@@H](C)CC)nn3)CC2)n1 | 10.4
84 | OCCOCCNc1ncnc2c1c(-c1ccccc1)cn2-c1ccccc1 | 10.7
85 | COc1ccc(C(C[N+](=O)[O-])c2c(-c3ccccc3)cc3ccccn23)cc1OC (stereo not drawn) | 12.7
86 | Cc1ccc(-c2nc3ccccc3[nH]2)s1 | 6.19
87 | CC(=O)c1sc(-c2ccc(Cl)cc2)cc1N | 18.8
88 | Cc1ccc(OCc2cc(C(=O)NCc3cnn(-c4cccc(F)c4)c3)no2)cn1 | 14.8

From PubChem BioAssay AID493002 (Sanford-Burnham Center for Chemical Genomics, 2010)
